# Source: US9682995B2, “Amino-substituted isothiazoles” (BAYER PHARMA AKTIENGESELLSCHAFT, priority 2013, dated 2017)
# Tests used:
# Experiment in all cases: Kinase Profiling (KINOMEscan)
# Type in all cases: binding
# [1] = target: 456 kinases (of these 395 non-mutant kinases) (Homo sapiens, UniProt O00506); details: YSK1; 10 μM
# [2] = target: 456 kinases (of these 395 non-mutant kinases) (Homo sapiens, UniProt O00750); details: PIK3C2B; 10 μM
# [3] = target: 456 kinases (of these 395 non-mutant kinases) (Homo sapiens, UniProt O14965); details: AURKA; 10 μM
# [4] = target: 456 kinases (of these 395 non-mutant kinases) (Homo sapiens, UniProt O15146); details: MUSK; 10 μM
# 456 kinases (of these 395 non-mutant kinases) (Homo sapiens, UniProt O15146), sequence (O15146 24-869 limits assumed, change not shown): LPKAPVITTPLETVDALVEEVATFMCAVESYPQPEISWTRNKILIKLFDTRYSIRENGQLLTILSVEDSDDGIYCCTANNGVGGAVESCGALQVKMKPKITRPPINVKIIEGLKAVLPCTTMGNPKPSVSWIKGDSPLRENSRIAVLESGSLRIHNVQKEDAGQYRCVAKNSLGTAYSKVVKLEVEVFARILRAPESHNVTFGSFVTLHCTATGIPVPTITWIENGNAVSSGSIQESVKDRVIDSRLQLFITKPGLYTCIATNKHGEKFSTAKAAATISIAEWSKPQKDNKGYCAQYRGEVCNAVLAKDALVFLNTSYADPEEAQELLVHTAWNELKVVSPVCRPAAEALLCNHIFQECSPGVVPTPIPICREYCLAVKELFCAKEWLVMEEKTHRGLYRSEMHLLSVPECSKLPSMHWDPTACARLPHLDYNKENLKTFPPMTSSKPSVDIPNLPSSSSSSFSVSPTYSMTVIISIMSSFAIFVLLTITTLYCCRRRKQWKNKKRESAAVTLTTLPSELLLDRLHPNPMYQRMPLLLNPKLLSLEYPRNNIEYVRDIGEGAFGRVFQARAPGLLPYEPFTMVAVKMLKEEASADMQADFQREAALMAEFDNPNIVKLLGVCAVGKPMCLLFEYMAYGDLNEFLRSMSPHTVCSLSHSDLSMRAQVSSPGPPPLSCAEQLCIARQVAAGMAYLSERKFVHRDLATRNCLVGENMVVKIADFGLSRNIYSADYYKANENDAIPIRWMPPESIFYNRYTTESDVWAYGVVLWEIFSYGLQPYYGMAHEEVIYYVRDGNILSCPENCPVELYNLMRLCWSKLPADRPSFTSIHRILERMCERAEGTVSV
# [5] = target: 456 kinases (of these 395 non-mutant kinases) (Homo sapiens, UniProt O75460); details: ERN1; 10 μM
# 456 kinases (of these 395 non-mutant kinases) (Homo sapiens, UniProt O75460), sequence (O75460 19-977 limits assumed, stated change not applied): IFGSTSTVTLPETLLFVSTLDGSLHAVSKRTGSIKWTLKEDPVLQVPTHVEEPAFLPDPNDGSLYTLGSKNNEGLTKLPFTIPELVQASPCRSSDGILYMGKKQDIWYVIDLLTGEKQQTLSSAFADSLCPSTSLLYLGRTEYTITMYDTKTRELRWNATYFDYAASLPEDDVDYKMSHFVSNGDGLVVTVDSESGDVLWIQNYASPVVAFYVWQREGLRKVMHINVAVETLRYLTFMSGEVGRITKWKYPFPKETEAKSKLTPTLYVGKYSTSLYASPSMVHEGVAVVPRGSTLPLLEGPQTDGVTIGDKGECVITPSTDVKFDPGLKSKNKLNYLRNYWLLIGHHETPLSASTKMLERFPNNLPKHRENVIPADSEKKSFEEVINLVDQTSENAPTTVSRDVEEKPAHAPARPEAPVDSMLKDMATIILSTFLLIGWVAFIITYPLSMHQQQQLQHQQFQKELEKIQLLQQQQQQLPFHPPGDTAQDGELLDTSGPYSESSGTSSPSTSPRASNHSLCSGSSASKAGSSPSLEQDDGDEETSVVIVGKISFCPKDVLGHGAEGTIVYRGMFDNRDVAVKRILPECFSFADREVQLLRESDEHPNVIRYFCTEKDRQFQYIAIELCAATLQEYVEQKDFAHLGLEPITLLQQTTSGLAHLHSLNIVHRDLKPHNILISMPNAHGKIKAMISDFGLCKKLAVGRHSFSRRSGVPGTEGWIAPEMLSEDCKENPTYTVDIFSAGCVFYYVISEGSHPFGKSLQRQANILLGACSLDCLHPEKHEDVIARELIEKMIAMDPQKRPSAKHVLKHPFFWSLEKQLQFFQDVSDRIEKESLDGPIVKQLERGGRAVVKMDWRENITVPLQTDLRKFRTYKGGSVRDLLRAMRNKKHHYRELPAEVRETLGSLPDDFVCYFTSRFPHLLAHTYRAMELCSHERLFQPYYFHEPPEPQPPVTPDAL
# [6] = target: 456 kinases (of these 395 non-mutant kinases) (Homo sapiens, UniProt P00533, L858R); details: EGFR(L858R); 10 μM
# [7] = target: 456 kinases (of these 395 non-mutant kinases) (Homo sapiens, UniProt P09619); details: PDGFRB; 10 μM
# 456 kinases (of these 395 non-mutant kinases) (Homo sapiens, UniProt P09619), sequence (P09619 33-1106 limits assumed, change not shown): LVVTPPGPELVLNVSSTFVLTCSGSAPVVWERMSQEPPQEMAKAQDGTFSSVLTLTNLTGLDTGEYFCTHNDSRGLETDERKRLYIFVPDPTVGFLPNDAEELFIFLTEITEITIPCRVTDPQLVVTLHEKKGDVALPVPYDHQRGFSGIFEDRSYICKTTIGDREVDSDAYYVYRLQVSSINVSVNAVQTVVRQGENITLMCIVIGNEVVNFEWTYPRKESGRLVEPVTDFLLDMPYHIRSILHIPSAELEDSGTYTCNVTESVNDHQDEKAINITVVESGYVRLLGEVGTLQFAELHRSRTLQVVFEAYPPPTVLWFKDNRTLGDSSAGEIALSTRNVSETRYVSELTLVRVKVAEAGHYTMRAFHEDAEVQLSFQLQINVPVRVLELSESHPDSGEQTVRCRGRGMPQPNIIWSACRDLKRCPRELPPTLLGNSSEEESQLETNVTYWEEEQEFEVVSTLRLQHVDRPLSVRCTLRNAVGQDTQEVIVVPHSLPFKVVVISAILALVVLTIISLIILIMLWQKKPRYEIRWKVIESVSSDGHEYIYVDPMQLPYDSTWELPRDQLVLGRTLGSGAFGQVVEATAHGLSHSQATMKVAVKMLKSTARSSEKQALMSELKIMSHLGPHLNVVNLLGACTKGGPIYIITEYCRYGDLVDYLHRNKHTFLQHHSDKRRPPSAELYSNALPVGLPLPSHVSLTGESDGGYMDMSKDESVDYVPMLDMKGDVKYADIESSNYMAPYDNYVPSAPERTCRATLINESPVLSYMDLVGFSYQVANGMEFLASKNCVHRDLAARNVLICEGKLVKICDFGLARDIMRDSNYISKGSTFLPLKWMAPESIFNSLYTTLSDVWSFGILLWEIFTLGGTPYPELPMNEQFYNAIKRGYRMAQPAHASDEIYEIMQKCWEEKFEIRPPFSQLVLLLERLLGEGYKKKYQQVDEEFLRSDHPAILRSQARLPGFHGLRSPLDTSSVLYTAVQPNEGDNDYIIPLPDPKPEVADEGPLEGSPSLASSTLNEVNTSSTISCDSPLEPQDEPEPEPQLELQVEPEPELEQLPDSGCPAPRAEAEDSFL
# [8] = target: 456 kinases (of these 395 non-mutant kinases) (Homo sapiens, UniProt P20794); details: MAK; 10 μM
# [9] = target: 456 kinases (of these 395 non-mutant kinases) (Homo sapiens, UniProt P21709); details: EPHA1; 10 μM
# [10] = target: 456 kinases (of these 395 non-mutant kinases) (Homo sapiens, UniProt P22694); details: PKAC-beta; 10 μM
# [11] = target: 456 kinases (of these 395 non-mutant kinases) (Homo sapiens, UniProt P42345); details: MTOR; 10 μM
# [12] = target: 456 kinases (of these 395 non-mutant kinases) (Homo sapiens, UniProt P45983); details: JNK1; 10 μM
# [13] = target: 456 kinases (of these 395 non-mutant kinases) (Homo sapiens, UniProt P49841); details: GSK3B; 10 μM
# [14] = target: 456 kinases (of these 395 non-mutant kinases) (Homo sapiens, UniProt Q00535); details: CDK5; 10 μM
# [15] = target: 456 kinases (of these 395 non-mutant kinases) (Homo sapiens, UniProt Q13555); details: CAMK2G; 10 μM
# [16] = target: 456 kinases (of these 395 non-mutant kinases) (Homo sapiens, UniProt Q13557); details: CAMK2D; 10 μM
# 456 kinases (of these 395 non-mutant kinases) (Homo sapiens, UniProt Q13557), sequence (Q13557 2-499 limits assumed, change not shown): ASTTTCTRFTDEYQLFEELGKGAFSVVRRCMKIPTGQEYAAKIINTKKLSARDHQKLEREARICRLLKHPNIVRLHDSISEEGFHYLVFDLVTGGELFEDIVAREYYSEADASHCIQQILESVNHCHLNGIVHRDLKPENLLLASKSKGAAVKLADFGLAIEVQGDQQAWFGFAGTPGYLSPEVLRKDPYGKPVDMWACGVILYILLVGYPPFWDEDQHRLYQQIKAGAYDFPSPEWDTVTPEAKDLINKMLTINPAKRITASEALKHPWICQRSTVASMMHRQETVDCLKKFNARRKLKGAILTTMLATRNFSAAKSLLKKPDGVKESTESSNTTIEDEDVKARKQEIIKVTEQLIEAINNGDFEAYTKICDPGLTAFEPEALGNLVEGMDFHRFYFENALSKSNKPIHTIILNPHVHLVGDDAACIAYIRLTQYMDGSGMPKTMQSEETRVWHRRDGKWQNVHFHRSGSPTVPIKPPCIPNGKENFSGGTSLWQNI
# [17] = target: 456 kinases (of these 395 non-mutant kinases) (Homo sapiens, UniProt Q13976); details: PRKG1; 10 μM
# 456 kinases (of these 395 non-mutant kinases) (Homo sapiens, UniProt Q13976), sequence (Q13976 2-671 limits assumed, change not shown): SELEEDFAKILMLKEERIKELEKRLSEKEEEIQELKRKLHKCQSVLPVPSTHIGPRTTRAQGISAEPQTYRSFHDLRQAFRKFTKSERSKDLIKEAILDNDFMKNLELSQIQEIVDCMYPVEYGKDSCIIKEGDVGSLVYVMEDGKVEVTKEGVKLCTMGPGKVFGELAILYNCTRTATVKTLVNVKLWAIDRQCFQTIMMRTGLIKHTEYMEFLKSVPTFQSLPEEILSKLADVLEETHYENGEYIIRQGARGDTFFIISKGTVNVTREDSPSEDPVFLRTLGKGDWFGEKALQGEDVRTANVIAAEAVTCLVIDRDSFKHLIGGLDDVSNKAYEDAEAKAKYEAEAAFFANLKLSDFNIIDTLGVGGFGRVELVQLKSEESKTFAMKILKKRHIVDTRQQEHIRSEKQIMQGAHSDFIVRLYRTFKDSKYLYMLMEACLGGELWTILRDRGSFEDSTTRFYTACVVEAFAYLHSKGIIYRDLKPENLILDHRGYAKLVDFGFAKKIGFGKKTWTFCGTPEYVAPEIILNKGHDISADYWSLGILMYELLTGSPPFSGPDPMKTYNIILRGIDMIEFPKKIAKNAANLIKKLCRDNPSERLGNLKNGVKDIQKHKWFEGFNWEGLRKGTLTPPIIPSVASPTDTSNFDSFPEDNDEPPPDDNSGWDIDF
# [18] = target: 456 kinases (of these 395 non-mutant kinases) (Homo sapiens, UniProt Q16659); details: ERK3; 10 μM
# [19] = target: 456 kinases (of these 395 non-mutant kinases) (Homo sapiens, UniProt Q7L7X3); details: TAOK1; 10 μM
# [20] = target: 456 kinases (of these 395 non-mutant kinases) (Homo sapiens, UniProt Q8IU85); details: CAMK1D; 10 μM
# [21] = target: 456 kinases (of these 395 non-mutant kinases) (Homo sapiens, UniProt Q8IYT8); details: ULK2; 10 μM
# [22] = target: 456 kinases (of these 395 non-mutant kinases) (Homo sapiens, UniProt Q8N568); details: DCAMKL2; 10 μM
# [23] = target: 456 kinases (of these 395 non-mutant kinases) (Homo sapiens, UniProt Q96SB4); details: SRPK1; 10 μM
# [24] = target: 456 kinases (of these 395 non-mutant kinases) (Homo sapiens, UniProt Q9BUB5); details: MKNK1; 10 μM
# [25] = target: 456 kinases (of these 395 non-mutant kinases) (Homo sapiens, UniProt Q9BWU1); details: CDK11; 10 μM
# [26] = target: 456 kinases (of these 395 non-mutant kinases) (Homo sapiens, UniProt Q9BYP7); details: WNK3; 10 μM
# [27] = target: 456 kinases (of these 395 non-mutant kinases) (Homo sapiens, UniProt Q9H1R3); details: MYLK2; 10 μM
# 456 kinases (of these 395 non-mutant kinases) (Homo sapiens, UniProt Q9H1R3), sequence (Q9H1R3 2-596 limits assumed, change not shown): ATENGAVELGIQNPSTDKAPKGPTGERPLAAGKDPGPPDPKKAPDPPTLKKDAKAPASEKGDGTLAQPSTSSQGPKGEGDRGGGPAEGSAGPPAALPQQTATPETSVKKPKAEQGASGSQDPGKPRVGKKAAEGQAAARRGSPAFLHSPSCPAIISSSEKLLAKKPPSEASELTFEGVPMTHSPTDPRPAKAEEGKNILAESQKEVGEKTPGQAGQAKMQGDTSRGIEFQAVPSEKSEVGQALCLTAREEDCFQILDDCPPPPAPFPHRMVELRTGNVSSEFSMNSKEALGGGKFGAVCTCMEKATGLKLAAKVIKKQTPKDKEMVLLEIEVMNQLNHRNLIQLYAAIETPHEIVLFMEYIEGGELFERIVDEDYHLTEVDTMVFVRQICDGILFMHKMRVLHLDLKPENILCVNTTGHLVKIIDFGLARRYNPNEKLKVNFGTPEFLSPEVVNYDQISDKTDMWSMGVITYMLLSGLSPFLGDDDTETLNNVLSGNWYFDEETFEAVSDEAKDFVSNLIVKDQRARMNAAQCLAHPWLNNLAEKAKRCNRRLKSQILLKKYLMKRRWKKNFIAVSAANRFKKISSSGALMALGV
# [28] = target: 456 kinases (of these 395 non-mutant kinases) (Homo sapiens, UniProt Q9H2X6); details: HIPK2; 10 μM
# [29] = target: 456 kinases (of these 395 non-mutant kinases) (Homo sapiens, UniProt Q9H422); details: HIPK3; 10 μM
# [30] = target: 456 kinases (of these 395 non-mutant kinases) (Homo sapiens, UniProt Q9HBH9); details: MKNK2; 10 μM
# [31] = target: 456 kinases (of these 395 non-mutant kinases) (Homo sapiens, UniProt Q9P286); details: PAK7; 10 μM
# [32] = target: 456 kinases (of these 395 non-mutant kinases) (Homo sapiens, UniProt Q9Y6E0); details: MST3; 10 μM
# [33] = target: 456 kinases (of these 395 non-mutant kinases) (Homo sapiens, UniProt Q9Y6R4); details: MAP3K4; 10 μM
compound,measurement,setting,value
"CCc1ccccc1NC(=O)c1c(C)nsc1Nc1cnc2cc(F)ccc2n1 [Example 20, N-(2-Ethylphenyl)-5-[(6-fluoroquinoxalin-2-yl)amino]-3-methyl-1,2-thiazole-4-carboxamide]",% Ctrl @ 10 μM,[1],100 % Ctrl
same,% Ctrl @ 10 μM,[2],100 % Ctrl
same,% Ctrl @ 10 μM,[3],100 % Ctrl
same,% Ctrl @ 10 μM,[4],91 % Ctrl
same,% Ctrl @ 10 μM,[5],100 % Ctrl
same,% Ctrl @ 10 μM,[6],96 % Ctrl
same,% Ctrl @ 10 μM,[7],89 % Ctrl
same,% Ctrl @ 10 μM,[8],100 % Ctrl
same,% Ctrl @ 10 μM,[9],95 % Ctrl
same,% Ctrl @ 10 μM,[10],82 % Ctrl
same,% Ctrl @ 10 μM,[11],100 % Ctrl
same,% Ctrl @ 10 μM,[12],100 % Ctrl
same,% Ctrl @ 10 μM,[13],100 % Ctrl
same,% Ctrl @ 10 μM,[14],100 % Ctrl
same,% Ctrl @ 10 μM,[15],75 % Ctrl
same,% Ctrl @ 10 μM,[16],89 % Ctrl
same,% Ctrl @ 10 μM,[17],90 % Ctrl
same,% Ctrl @ 10 μM,[18],68 % Ctrl
same,% Ctrl @ 10 μM,[19],100 % Ctrl
same,% Ctrl @ 10 μM,[20],87 % Ctrl
same,% Ctrl @ 10 μM,[21],100 % Ctrl
same,% Ctrl @ 10 μM,[22],98 % Ctrl
same,% Ctrl @ 10 μM,[23],86 % Ctrl
same,% Ctrl @ 10 μM,[24],100 % Ctrl
same,% Ctrl @ 10 μM,[25],100 % Ctrl
same,% Ctrl @ 10 μM,[26],100 % Ctrl
same,% Ctrl @ 10 μM,[27],100 % Ctrl
same,% Ctrl @ 10 μM,[28],100 % Ctrl
same,% Ctrl @ 10 μM,[29],96 % Ctrl
same,% Ctrl @ 10 μM,[30],100 % Ctrl
same,% Ctrl @ 10 μM,[31],94 % Ctrl
same,% Ctrl @ 10 μM,[32],75 % Ctrl
same,% Ctrl @ 10 μM,[33],84 % Ctrl
